Measured values as given in patent publication US11013696B2, “Lipids and lipid compositions for the delivery of active agents” (Novartis AG, priority 2013, dated 2021).

How the values were obtained:
[1] = Percent encapsulation of mRNA in lipid nanoparticles (Quant-iT Ribogreen); assay type: physicochemical; settings: Table 2; leptin mRNA in LNP with the cationic lipid
How it was run: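 LNPs made by T-junction mixing of ethanolic lipids (cationic lipid:DSPC:cholesterol:PEG lipid 40:10:38:2, N:P 4:1) with mRNA in citrate pH 5.8-6.0, then dialysed against PBS overnight at 4 °C. RiboGreen fluorescence (ex 480/em 520 nm) measured in TE ± 0.75% Triton X-100; encapsulation = (total − free)/total.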

human leptin [2] = assay: Human leptin in mouse plasma (ELISA) after IV tail vein injection of encapsulated leptin mRNA; assay type: in vivo; settings: hLeptin, 0.2 mpk, ob/ob
Protocol: Human leptin in mouse plasma was measured by ELISA. Antibodies purchased from the R&D Systems duoset (Cat #DY398E, part #840279 for capture antibody and part #840280 for detection antibody) were reconstituted using PBS and titered, again using PBS. The capture antibody was coated at 4 ug/ml in 30 ul/well on a white Nunc® Maxisorp 384 well plate (Cat #460372). After an overnight incubation at room temperature the capture antibody was aspirated and the plate blocked for 2 hours at room temperature with 90 ul/well of KPL milk blocker (Cat #50-82-00). Once the incubation was completed the plate was aspirated and recombinant standards and samples were added to the plate at 30 ul/well for 2 hours at 37° C. while shaking at 600 rpm. Sample/standard dilutions were made using casein sample diluent. Washing/aspiration 3 times with 100 ul/well followed, using Teknova plate wash solution (Cat #P1192). Next, detection antibody was diluted using casein detection antibody diluent to 12.5 ng/ml and added at 30 ul/well for 2 hours room temperature. After this incubation, the plate was washed again and a solution of poly-streptavidin-HRP (Cat #21140) at a 1:1250 dilution in HRP dilution buffer was added to each well (30 ul/well) and incubated for 30 minutes room temperature. A final wash/aspiration removed the HRP solution and a chemiluminescent substrate was added at 30 ul/well (Cat #1859678 & 1859679). The plate was quickly read using a SpectramaxM5 plate reader with a 50 ms integration time. The dynamic range of the ELISA is from 100-2,000 […] (6.25-125 pM) of human leptin. The assay is applicable to plasma from mice, rats and cynomolgus monkeys.
Before the tail vein injection, mouse body weights were recorded and diet weighted, with mice grouped according to their body weights. Mice were prepared by warming them under a heating lamp for ˜2 minutes, with the mice about 12 inches from heat lamp. […]
On day 0, animals were weighed and sorted according to average body weight. Mice were dosed, and food intake (FI) was recorded, on each of days 1-7 and days 9, 11, and 16.

human leptin [3] = assay: Human leptin in mouse plasma (ELISA) after subcutaneous injection of encapsulated leptin mRNA; assay type: in vivo; settings: hLeptin, 0.2 mpk, ob/ob
Factor VII = assay: Mouse Factor VII dosing and plasma Factor VII activity assay (FVII siRNA LNP, IV); assay type: in vivo; settings: 0.03 mpk, XXX mice
Protocol: Female CD-1 mice were received from Harlan Labs and maintained on standard lab chow and water ad libitum. The animals weighed approximately 25 gr at time of dosing. Formulated Factor VII siRNA was administered as a single dose intravenously via the lateral tail vein. Approximately 48 hours after injection, the mice were euthanized by CO2 inhalation followed by exsanguination through the vena cava.
Plasma collected from injected mice was assayed for Factor VII enzyme activity using the Biophen FVII kit from Hyphen Biomedical (catalog number 221304). An assay standard curve was prepared using pooled plasma aliquots from the vehicle control animals. All samples were diluted to fall within the linear range of the standard curve and Factor VII activity relative to control plasma was reported.
Lipid nanoparticles comprising lipid compounds of formula (I) and the FVII siRNA duplex sequence listed above were tested in the Factor VII Activity Assay. The results of this assay are given in Table 34 below as a percent knock down of plasma Factor VII enzyme activity at a dose of 0.3 mg/kg and 0.03 mg/kg.

CCCCCCCCCCCCC(CCC(=O)OC(COC(=O)CCCCCCCCC)COC(=O)CCCCCCCCC)OC(=O)OCCCN(C)CC (stereo not shown) [Example 91, 2-((4-(((3-(ethyl(methyl)amino)propoxy)carbonyl)oxy)hexadecanoyl)oxy)propane-1,3-diyl bis(decanoate)]
% encapsulation mRNA Leptin [1]: 94.4%
Expression of protein following IV injection of encapsulated mRNA (human leptin [2]): 33.6 ng/mL
Expression of protein following SC injection of encapsulated mRNA (human leptin [3]): 3.5 ng/mL
FVII knock-down following IV injection of encapsulated siRNA (Factor VII): 97%/0.03
